Results published in US10501495B2, “Antimicrobial surface” (The University of Birmingham, priority 2014, dated 2019).
In brackets after ≈: the same amount, converted by molar mass. Where a SMILES comes first, the peptide text is derived from it. Primed or numbered codes have the meaning given here. Where no end group is shown, it is not given here. Linker = not defined here; FITC′ = not defined here

What was measured:
S. aureus = format: cell-based
Protocol: (§1) The antibacterial activity of various amino acid sequences was tested against S. aureus, P. aeruginosa and E. coli.

E. coli = format: cell-based
Protocol: as §1

P. aeruginosa = format: cell-based
Protocol: as §1

[1] = Release study of FITC peptide from hydroxyapatite disk into PBS (fluorescence); format: physicochemical
Protocol: A release study was carried out to ascertain the strength of adherence of the DDDDDDD (SEQ ID NO: 15)-Linker-FITC peptide to the hydroxyapatite surface. Disks of hydroxyapatite were incubated in 1 mg/ml peptide solutions for 1 hour and then washed thoroughly with PBS. The disk was then placed into a cuvette and surrounded with PBS solution (2 ml). The fluorescence of the solution around the disk was measured to ascertain the rate of peptide diffusion from the disk into the surrounding solution.

[2] = Binder-surface adherence of FITC-labelled binder peptide, fluorescence microscopy; format: physicochemical; conditions: hydroxyapatite disks and titanium squares, pH 7, room temperature, washed before imaging
Text: This work established that the binder peptides interact with the surfaces

[3] = Further release studies of linker-FITC peptides from surface under different temperatures and pH; format: physicochemical
Protocol: Further release studies were carried out to ascertain the strength of adherence of the peptides RKLPDA (SEQ ID NO: 12), RKLPDARKLPDA (SEQ ID NO: 13) and EEEEEEE (SEQ ID NO: 14) to the surface under different temperatures and pH. Each peptide comprised a linker-FITC sequence for fluorescence. Surfaces were coated with peptide as described for FIG. 1. The peptide-coated disks were incubated in PBS or in a balanced buffer at a set pH. Aliquots of the solution surrounding the surface were taken out at set time points and the fluorescence of the peptide in the solution monitored to establish the rate of peptide diffusion from the disk into the surrounding solution.

[4] = room temperature, balanced buffer pH 9 (FIG. 5)
[5] = room temperature, balanced pH 7 buffer (FIG. 4)

Row | Molecule | Minimum inhibitory concentration (MIC) S. aureus (S. aureus) | Minimum inhibitory concentration (MIC) E. coli (E. coli) | Minimum inhibitory concentration (MIC) P. aeruginosa (P. aeruginosa) | other results
1 | CC(C)C[C@H](NC(=O)CNC(=O)[C@H](CS)NC(=O)[C@@H](NC(=O)CN)[C@@H](C)O)C(=O)N1CCC[C@H]1C(=O)NCC(=O)N[C@H](C(=O)N[C@@H](CCCCN)C(=O)N[C@@H](CS)C(=O)N[C@@H](CS)C(=O)O)[C@@H](C)O [GTCGLPGTKCC] (H-GTCGLPGTKCC-OH; N-terminus and C-terminus assumed) | 5000 µg/mL (≈ 4.81 mM) | 10000 µg/mL (≈ 9.62 mM) | 5000 µg/mL (≈ 4.81 mM) | –
2 | N=C(N)NCCC[C@H](NC(=O)[C@H](CCCNC(=N)N)NC(=O)[C@H](CCCNC(=N)N)NC(=O)[C@H](CCCNC(=N)N)NC(=O)[C@H](CCCNC(=N)N)NC(=O)[C@@H](N)CCCNC(=N)N)C(=O)O [RRRRRR] | 5000 µg/mL (≈ 5.23 mM) | 2500 µg/mL (≈ 2.62 mM) | 39 µg/mL (≈ 0.0408 mM) | efficacy against P. aeruginosa (in words) (P. aeruginosa): surprisingly high efficacy
3 | DDDDDDD (DDDDDDD-{Linker-FITC′}; not fully specified; reading uncertain) | – | – | – | rate of release from hydroxyapatite into surrounding solution ([1]; disk incubated in 1 mg/ml peptide 1 hour, PBS 2 ml): fairly slow rate; time up to which increases in fluorescence (release) were observed ([1]; hydroxyapatite disk in PBS): up to 10 hours; adherence of FITC-labelled binder peptide to surfaces [2]: adhered well to the surfaces
4 | EEEEEEE (also: linker-FITC, site not given here) | – | – | – | release of peptide from surface ([3]; 4° C., pH 7 PBS (FIG. 3)): released; release of peptide from surface ([3]; 37° C., pH 7 PBS (FIG. 2)): released; release of peptide from surface [3, 4]: released; release of peptide from surface [3, 5]: released; release in comparison to RKLPDA and RKLPDARKLPDA ([3]; room temperature, pH 4 (FIG. 6)): Increased release
5 | EEEEEEEE | none | none | none | –
6 | GTCIYQRLNAF [GTCIYQRLNAF] | 10000 µg/mL | 10000 µg/mL | 10000 µg/mL | –
7 | PACIGERRY [PACIGERRY] | 10000 µg/mL | 10000 µg/mL | 10000 µg/mL | –
8 | RKLPDA (also: linker-FITC, site not given here) | none | none | none | release of peptide from surface [3, 4]: not released; release of peptide from surface [3, 5]: not released
9 | RKLPDARKLPDA (also: linker-FITC, site not given here) | – | – | – | release of peptide from surface [3, 4]: not released; release of peptide from surface [3, 5]: not released
10 | RLYLRIGRR [RLYLRIGRR] | 500 µg/mL | 250 µg/mL | 2000 µg/mL | –
11 | RRIYGRGYIRR [RRIYGRGYIRR] | 2500 µg/mL | 1250 µg/mL | 2500 µg/mL | –
12 | RRIYGRGYIRREEEEEEEE [RRIYGRGYIRREEEEEEEE] | 5000 µg/mL | 5000 µg/mL | 10000 µg/mL | –
13 | RRIYGRGYIRRRKLPDA [RRIYGRGYIRRRKLPDA] | 10000 µg/mL | 5000 µg/mL | 10000 µg/mL | –
